What all share (format): biochemical
One assay concerns the target T1, PAD3 (Homo sapiens, UniProt Q9ULW8).
T1 construct: made in house
T1 sequence (Q9ULW8 1-664): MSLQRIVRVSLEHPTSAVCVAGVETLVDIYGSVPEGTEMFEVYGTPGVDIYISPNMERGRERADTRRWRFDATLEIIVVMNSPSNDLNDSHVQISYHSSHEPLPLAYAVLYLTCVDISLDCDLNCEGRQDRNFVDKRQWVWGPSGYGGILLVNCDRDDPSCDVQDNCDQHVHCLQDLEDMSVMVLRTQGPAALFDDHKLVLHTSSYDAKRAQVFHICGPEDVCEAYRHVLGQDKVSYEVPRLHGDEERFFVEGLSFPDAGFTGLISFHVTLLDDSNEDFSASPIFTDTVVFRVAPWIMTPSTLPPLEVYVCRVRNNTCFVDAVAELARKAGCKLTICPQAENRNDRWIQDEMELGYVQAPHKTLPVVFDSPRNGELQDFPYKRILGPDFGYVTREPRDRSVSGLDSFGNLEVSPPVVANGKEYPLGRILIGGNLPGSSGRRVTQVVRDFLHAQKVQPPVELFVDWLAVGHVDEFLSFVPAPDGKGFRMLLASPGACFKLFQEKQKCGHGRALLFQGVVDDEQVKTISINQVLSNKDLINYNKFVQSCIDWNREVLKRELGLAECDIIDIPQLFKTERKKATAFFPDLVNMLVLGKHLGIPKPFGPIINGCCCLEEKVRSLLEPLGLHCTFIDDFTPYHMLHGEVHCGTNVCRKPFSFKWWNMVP
Briefly: Inactivation kinetics, PAD3. Particulars: for kinact/KI: a: single kobs determined; for Fold PAD3 Selectivity: kinact/KI relative to least inhibited isozyme (1.0). Summed up:
(§1)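 PAD1, 2 or 4 (2.0 μM) or PAD3 (5.0 μM) preincubated at 37 °C with varying inhibitor in 50 mM HEPES, 10 mM CaCl2, 2 mM DTT, pH 7.6. Timed aliquots assayed 15 min with 10 mM BAEE (BAA for PAD3); citrulline quantified by COLDER.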

In another assay the target is T2, PAD2 (Homo sapiens, UniProt Q9Y2J8).
T2 construct: made in house
Kind of assay: Inactivation kinetics, PAD2. Particulars: for kinact/KI: a: single kobs determined, b: from a linear fit, other footnotes: from kinact and KI; for Fold PAD2 Selectivity: kinact/KI relative to least inhibited isozyme (1.0); for Ki / kinact: PAD2, table footnote. Summed up: as §1

For the next assay, the target named is T3, PAD1 (Homo sapiens, UniProt Q9ULC6).
T3 construct: made in house
T3 sequence (Q9ULC6 1-663): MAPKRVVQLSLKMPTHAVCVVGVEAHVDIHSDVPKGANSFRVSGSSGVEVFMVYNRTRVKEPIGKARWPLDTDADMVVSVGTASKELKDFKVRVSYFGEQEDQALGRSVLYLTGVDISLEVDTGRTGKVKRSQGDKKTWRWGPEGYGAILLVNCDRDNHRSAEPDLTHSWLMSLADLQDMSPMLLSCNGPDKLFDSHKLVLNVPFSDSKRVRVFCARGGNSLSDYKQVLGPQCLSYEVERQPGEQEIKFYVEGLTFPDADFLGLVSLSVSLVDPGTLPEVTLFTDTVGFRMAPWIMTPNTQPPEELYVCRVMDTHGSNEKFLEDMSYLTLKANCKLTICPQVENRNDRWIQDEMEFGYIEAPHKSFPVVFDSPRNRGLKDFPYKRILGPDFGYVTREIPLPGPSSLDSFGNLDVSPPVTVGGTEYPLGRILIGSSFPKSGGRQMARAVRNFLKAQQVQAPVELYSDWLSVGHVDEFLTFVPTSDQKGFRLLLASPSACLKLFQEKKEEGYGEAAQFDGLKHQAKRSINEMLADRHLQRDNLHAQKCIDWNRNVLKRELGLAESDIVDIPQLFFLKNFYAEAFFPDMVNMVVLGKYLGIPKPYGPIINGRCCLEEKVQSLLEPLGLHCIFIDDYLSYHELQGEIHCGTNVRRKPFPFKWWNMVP
Kind of assay: Inactivation kinetics, PAD1. The note with it: for kinact/KI: a: single kobs determined, b: from a linear fit; for Fold PAD1 Selectivity: kinact/KI relative to least inhibited isozyme (1.0). Summed up: as §1

The next assay concerns the target T4, PAD4 (Homo sapiens, UniProt Q9UM07).
T4 construct: made in house
Kind of assay: Inactivation kinetics, PAD4. The note with it: for kinact/KI: a: single kobs determined, b: from a linear fit; for Fold PAD4 Selectivity: kinact/KI relative to least inhibited isozyme (1.0). The procedure, abridged: as §1

11 compounds from patent US11208386B2, “Inhibitors of protein arginine deiminases (PADs) and methods of preparation and use thereof” (University of Massachusetts, priority 2016, dated 2021) can be followed below.

Broadly, the kinact/KI is the second-order rate constant of inactivation. A word on the kinact: it is the maximal first-order rate at which the target is inactivated.

T4 sequence (Q9UM07 whole entry): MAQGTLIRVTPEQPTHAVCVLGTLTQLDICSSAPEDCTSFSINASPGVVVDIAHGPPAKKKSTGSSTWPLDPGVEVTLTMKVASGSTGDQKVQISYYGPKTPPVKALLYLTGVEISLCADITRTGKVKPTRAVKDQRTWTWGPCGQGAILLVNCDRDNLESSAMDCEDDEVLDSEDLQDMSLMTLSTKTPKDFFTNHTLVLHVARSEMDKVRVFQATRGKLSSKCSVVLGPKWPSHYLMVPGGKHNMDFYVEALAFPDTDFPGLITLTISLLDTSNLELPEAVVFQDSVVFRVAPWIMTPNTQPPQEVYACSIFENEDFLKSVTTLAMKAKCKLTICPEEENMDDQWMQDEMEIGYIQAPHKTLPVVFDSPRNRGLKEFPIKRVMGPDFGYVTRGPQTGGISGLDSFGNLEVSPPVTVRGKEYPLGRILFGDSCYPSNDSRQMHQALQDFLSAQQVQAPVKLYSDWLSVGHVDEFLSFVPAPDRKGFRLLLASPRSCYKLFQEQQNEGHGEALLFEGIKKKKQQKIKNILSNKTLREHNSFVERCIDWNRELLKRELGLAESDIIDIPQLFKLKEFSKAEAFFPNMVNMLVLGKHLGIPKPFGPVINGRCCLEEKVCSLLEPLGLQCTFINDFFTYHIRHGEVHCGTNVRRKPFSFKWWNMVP
T2 sequence (Q9Y2J8 whole entry): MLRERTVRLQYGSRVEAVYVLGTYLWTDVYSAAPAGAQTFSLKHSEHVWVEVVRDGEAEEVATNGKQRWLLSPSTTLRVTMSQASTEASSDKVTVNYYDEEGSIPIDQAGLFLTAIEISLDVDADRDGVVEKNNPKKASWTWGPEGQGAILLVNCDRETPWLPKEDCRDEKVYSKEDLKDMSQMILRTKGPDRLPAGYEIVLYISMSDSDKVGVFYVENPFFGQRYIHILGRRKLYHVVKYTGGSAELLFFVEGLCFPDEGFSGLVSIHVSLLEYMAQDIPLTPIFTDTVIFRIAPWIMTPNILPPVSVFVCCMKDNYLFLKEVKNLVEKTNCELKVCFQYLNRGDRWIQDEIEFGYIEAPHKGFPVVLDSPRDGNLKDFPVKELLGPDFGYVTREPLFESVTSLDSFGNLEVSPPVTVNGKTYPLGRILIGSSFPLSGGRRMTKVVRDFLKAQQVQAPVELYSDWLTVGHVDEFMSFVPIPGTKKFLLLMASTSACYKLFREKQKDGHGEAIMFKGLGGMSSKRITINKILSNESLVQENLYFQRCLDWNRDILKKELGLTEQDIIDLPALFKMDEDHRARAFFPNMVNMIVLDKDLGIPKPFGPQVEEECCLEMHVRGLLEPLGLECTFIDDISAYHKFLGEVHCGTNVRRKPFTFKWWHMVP

For the compound `CCN1Cc2cccc(C(=O)N[C@@H](CCCNC(=N)CF)c3nc4ccccc4n3CC)c2C1=O` [Compound 8e, N1-(2-ethyl-3-oxoisoindoline)benzoyl-N5-(2-fluoro-1-iminoethyl)-1-(1-ethyl-benzo[d]imidazol-2-yl)-L-ornithine], on PAD3, the kinact/KI was 20.8 M⁻¹ s⁻¹ and the “Fold PAD3 Selectivity” value was found to be 1.0 fold. Moreover, on PAD2, the kinact/KI is 677 M⁻¹ s⁻¹ and the “Fold PAD2 Selectivity” value amounted to 33 fold. Further, on PAD1, the kinact/KI was 402 M⁻¹ s⁻¹ and the “Fold PAD1 Selectivity” value came out at 19 fold. For the same compound, at PAD4, the kinact/KI is 20.7 M⁻¹ s⁻¹ and the “Fold PAD4 Selectivity” value was 1.0 fold.
For the compound `CCN1Cc2cccc(C(=O)N[C@@H](CCCNC(=N)CCl)c3nc4ccccc4n3CC)c2C1=O` [Compound 8f, N1-(2-ethyl-3-oxoisoindoline)benzoyl-N5-(2-chloro-1-iminoethyl)-1-(1-ethyl-benzo[d]imidazol-2-yl)-L-ornithine], at PAD3, the kinact/KI is 114 M⁻¹ s⁻¹ and the “Fold PAD3 Selectivity” value came to 2.1 fold. At PAD2, the kinact/KI is 752 M⁻¹ s⁻¹ and the “Fold PAD2 Selectivity” value worked out at 14 fold. Besides, at PAD1, the kinact/KI was 952 M⁻¹ s⁻¹ and the “Fold PAD1 Selectivity” value was 18 fold. Further, at PAD4, the kinact/KI is 54.2 M⁻¹ s⁻¹ and the “Fold PAD4 Selectivity” value is on record as 1.0 fold.
In the case of `CCN1Cc2cccc(C(=O)N[C@@H](CCCNC(=N)CF)c3nc4ccccc4n3C(C)C)c2C1=O` [Compound 8g, N1-(2-ethyl-3-oxoisoindoline)benzol-N5-(2-fluoro-1-iminoethyl)-1-(1-isopropyl-benzo[d]imidazol-2-yl)-L-ornithine], at PAD3, the kinact/KI is 26.7 M⁻¹ s⁻¹ and the “Fold PAD3 Selectivity” value amounted to 3.4 fold. Moreover, on PAD2, the kinact/KI is 173 M⁻¹ s⁻¹ and the “Fold PAD2 Selectivity” value was 22 fold. Besides, at PAD1, the kinact/KI is 78.3 M⁻¹ s⁻¹ and the “Fold PAD1 Selectivity” value came to 10 fold. In addition, at PAD4, the inactivation efficiency (kinact/KI) is 7.83 M⁻¹ s⁻¹ and the “Fold PAD4 Selectivity” value is on record as 1.0 fold.
Take `CCN1Cc2cccc(C(=O)N[C@@H](CCCNC(=N)CCl)c3nc4ccccc4n3C(C)C)c2C1=O` [Compound 8h, N1-(2-ethyl-3-oxoisoindoline)benzoyl-N5-(2-chloro-1-iminoethyl)-1-(1-isopropyl-benzo[d]imidazol-2-yl)-L-ornithine]: on PAD3, the kinact/KI is 80 M⁻¹ s⁻¹ and the “Fold PAD3 Selectivity” value was determined as 2.0 fold. For the same compound, on PAD2, the kinact/KI was 277 M⁻¹ s⁻¹ and the “Fold PAD2 Selectivity” value is 6.8 fold. At PAD1, the kinact/KI is 448 M⁻¹ s⁻¹ and the “Fold PAD1 Selectivity” value is on record as 11 fold. Moreover, on PAD4, the inactivation efficiency (kinact/KI) was 40.5 M⁻¹ s⁻¹ and the “Fold PAD4 Selectivity” value is recorded as 1.0 fold.
As to `CCN1Cc2cccc(C(=O)N[C@@H](CCCNC(=N)CF)c3nc4c(OC)cccc4[nH]3)c2C1=O` [Compound 8i, N1-(2-ethyl-3-oxoisoindoline)benzoyl-N5-(2-fluoro-1-iminoethyl)-1-(4-methoxy-1H-benzo[d]imidazol-2-yl)-L-ornithine], on PAD3, the kinact/KI is 153 M⁻¹ s⁻¹ and the “Fold PAD3 Selectivity” value came out at 12 fold. On PAD2, the kinact/KI is 396 M⁻¹ s⁻¹ and the “Fold PAD2 Selectivity” value is listed as 32 fold. At PAD1, the kinact/KI is 1340 M⁻¹ s⁻¹ and the “Fold PAD1 Selectivity” value is 107 fold. Besides, on PAD4, the kinact/KI is 12.5 M⁻¹ s⁻¹ and the “Fold PAD4 Selectivity” value is 1.0 fold.
As to `CCN1Cc2cccc(C(=O)N[C@@H](CCCNC(=N)CCl)c3nc4c(OC)cccc4[nH]3)c2C1=O` [Compound 8j, N1-(2-ethyl-3-oxoisoindoline)benzoyl-N5-(2-chloro-1-iminoethyl)-1-(4-methoxy-1H-benzo[d]imidazol-2-yl)-L-ornithine], on PAD3, the inactivation efficiency (kinact/KI) is 313 M⁻¹ s⁻¹ and the “Fold PAD3 Selectivity” value turned out to be 1.0 fold. At PAD2, the kinact/KI is 720 M⁻¹ s⁻¹ and the “Fold PAD2 Selectivity” value was 2.3 fold. In addition, at PAD1, the inactivation efficiency (kinact/KI) was 1530 M⁻¹ s⁻¹ and the “Fold PAD1 Selectivity” value is 5.0 fold. On PAD4, the kinact/KI is 308 M⁻¹ s⁻¹ and the “Fold PAD4 Selectivity” value is 1.0 fold.
For `CCN1Cc2cccc(C(=O)N[C@@H](CCCNC(=N)CF)c3nc4c(OC)cccc4n3C)c2C1=O` [Compound 8k, N1-(2-ethyl-3-oxoisoindoline)benzoyl-N5-(2-fluoro-1-iminoethyl)-1-(4-methoxy-1-methyl-benzo[d]imidazol-2-yl)-L-ornithine], at PAD3, the inactivation efficiency (kinact/KI) was 72 M⁻¹ s⁻¹ and the “Fold PAD3 Selectivity” value is on record as 1.0 fold. For the same compound, at PAD2, the Ki worked out at 5.3 µM, the maximal inactivation rate constant (kinact) worked out at 0.0323 s⁻¹, the kinact/KI was 6090 M⁻¹ s⁻¹ and the “Fold PAD2 Selectivity” value was 85 fold. Besides, at PAD1, the kinact/KI was 1180 M⁻¹ s⁻¹ and the “Fold PAD1 Selectivity” value is 16 fold. For the same compound, on PAD4, the kinact/KI was 71.7 M⁻¹ s⁻¹ and the “Fold PAD4 Selectivity” value was 1.0 fold.
Turning to `CCN1Cc2cccc(C(=O)N[C@@H](CCCNC(=N)CCl)c3nc4c(OC)cccc4n3C)c2C1=O` [Compound 8l, N1-(2-ethyl-3-oxoisoindoline)benzoyl-N5-(2-chloro-1-iminoethyl)-1-(4-methoxy-1-methyl-benzo[d]imidazol-2-yl)-L-ornithine], on PAD3, the second-order inactivation constant (kinact/KI) is 247 M⁻¹ s⁻¹ and the “Fold PAD3 Selectivity” value worked out at 1.0 fold. Moreover, on PAD2, the kinact/KI was 1240 M⁻¹ s⁻¹ and the “Fold PAD2 Selectivity” value is 5.0 fold. Also, on PAD1, the kinact/KI was 963 M⁻¹ s⁻¹ and the “Fold PAD1 Selectivity” value is 3.9 fold. Besides, at PAD4, the inactivation efficiency (kinact/KI) was 323 M⁻¹ s⁻¹ and the “Fold PAD4 Selectivity” value is listed as 1.3 fold.
Take `CCOc1cccc2c1nc([C@H](CCCNC(=N)CF)NC(=O)c1cccc3c1C(=O)N(CC)C3)n2C` [Compound 8m, N1-(2-ethyl-3-oxoisoindoline)benzoyl-N5-(2-fluoro-1-iminoethyl)-1-(4-ethoxy-1-methyl-benzo[d]imidazol-2-yl)-L-ornithine]: at PAD3, the inactivation efficiency (kinact/KI) is 57.8 M⁻¹ s⁻¹ and the “Fold PAD3 Selectivity” value turned out to be 1.0 fold. Besides, on PAD2, the kinact/KI was 1430 M⁻¹ s⁻¹ and the “Fold PAD2 Selectivity” value was determined as 26 fold. Further, at PAD1, the kinact/KI is 497 M⁻¹ s⁻¹ and the “Fold PAD1 Selectivity” value amounted to 8.9 fold. On PAD4, the inactivation efficiency (kinact/KI) was 55.8 M⁻¹ s⁻¹ and the “Fold PAD4 Selectivity” value was determined as 1.0 fold.
As to `CCOc1cccc2c1nc([C@H](CCCNC(=N)CCl)NC(=O)c1cccc3c1C(=O)N(CC)C3)n2C` [Compound 8n, N1-(2-ethyl-3-oxoisoindoline)benzoyl-N5-(2chloro-1-iminoethyl)-1-(4-ethoxy-1-methyl-benzo[d]imidazol-2-yl)-L-ornithine], at PAD3, the kinact/KI is 138 M⁻¹ s⁻¹ and the “Fold PAD3 Selectivity” value is 5.5 fold. Besides, on PAD2, the kinact/KI is 1090 M⁻¹ s⁻¹ and the “Fold PAD2 Selectivity” value was determined as 43 fold. On PAD1, the kinact/KI was 302 M⁻¹ s⁻¹ and the “Fold PAD1 Selectivity” value is listed as 12 fold. Besides, on PAD4, the kinact/KI was 25.2 M⁻¹ s⁻¹ and the “Fold PAD4 Selectivity” value was determined as 1.0 fold.
In the case of `CCN1Cc2cccc(C(=O)N[C@@H](CCCNC(=N)CF)c3nc4cc(OC)ccc4n3C)c2C1=O` [Compound 8o, N1-(2-ethyl-3-oxoisoindoline)benzoyl-N5-(2-fluoro-1-iminoethyl)-1-(5-methoxy-1-methyl-benzo[d]imidazol-2-yl)-L-ornithine], at PAD3, the second-order inactivation constant (kinact/KI) was 17.8 M⁻¹ s⁻¹ and the “Fold PAD3 Selectivity” value is 1.0 fold. Also, at PAD2, the Ki was 18.7 µM, the inactivation rate constant (kinact) is 0.0417 s⁻¹, the kinact/KI is 2230 M⁻¹ s⁻¹ and the “Fold PAD2 Selectivity” value is 125 fold. At PAD1, the second-order inactivation constant (kinact/KI) is 842 M⁻¹ s⁻¹ and the “Fold PAD1 Selectivity” value was determined as 47 fold. Further, at PAD4, the kinact/KI was 68.3 M⁻¹ s⁻¹ and the “Fold PAD4 Selectivity” value is listed as 3.8 fold.
